Results taken from PMC11943913, “Peptides from Harpadon nehereus Bone Ameliorate Sodium Palmitate-Induced HepG2 Lipotoxicity by Regulating Oxidative Stress and Lipid Metabolism” (Marine Drugs, 2025).
Entries after “also recorded” stand apart in the source; their conditions may differ.

Assays:
[1] = test system: triacylglycerol (TG); experiment: Triacylglycerol (TG) level in HepG2; format: cell-based
Method: (§1) After incubation, cells were treated with 100 μM of peptides for 4 h. After removing the media, PANa was added for 24 h of incubation. The levels of catalase (CAT), superoxide dismutase (SOD), glutathione peroxidase (GSH-Px), malondialdehyde (MDA), triacylglycerol (TG), total cholesterol (TCHO), low-density lipoprotein cholesterol (LDL-C), and high-density lipoprotein cholesterol (HDL-C) in the supernatant were determined according to the kit instructions.

[2] = test system: Nrf2; experiment: Western blot Nrf2; format: cell-based; conditions: HepG2, Western blot
Method: (§2) After treatment, cells were washed with pre-chilled PBS and lysed with ice-cold lysis buffer for 30 min. The supernatant was collected after centrifugation at 12,000× g for 10 min and stored at −80 °C. Protein concentration was determined using a BCA protein assay kit. Equal amounts of protein (20–40 µg) were subjected to 10% sodium dodecyl sulfate-polyacrylamide gel electrophoresis (SDS-PAGE) and transferred to PVDF membranes (Polyvinylidene Fluoride, Merck, Darmstadt, Germany). Non-specific binding sites were blocked with 5% bovine serum albumin (BSA) solution at room temperature for 1 h, followed by incubation with the primary antibody at 4 °C overnight. After washing with TBST (3 times, 10 min/time), the membrane was incubated with the secondary antibody at room temperature for 1 h. Following further washing with TBST (3 times, 10 min/time), antibody signals were detected using a Western blot development system. The dilution ratios for the internal reference protein, vascular endothelial injury-related proteins, and oxidative stress-related pathway proteins were prepared according to the manufacturer’s instructions.

[3] = test system: HepG2 cells; experiment: CCK-8 proliferation of HepG2 with PANa; format: cell-based; conditions: 1000 μM PANa, 24 h, CCK-8, p < 0.0001, 100% at 0 μM PANa
Method: After incubation, different concentrations (250, 500, 750, 1000 μmol/L) of PANa were added and treated for 24 h. The cell proliferation rates were measured according to the CCK-8 assay instructions.

[4] = test system: glutathione peroxidase (GSH-Px); experiment: Glutathione peroxidase (GSH-Px) activity in HepG2; format: cell-based
Method: as §1

[5] = test system: p-AMPKα; experiment: Western blot p-AMPKα; format: cell-based; conditions: 350 µM PANa 24 h, HepG2, Western blot
Method: as §2

[6] = test system: low-density lipoprotein cholesterol (LDL-C); experiment: LDL-C level in HepG2; format: cell-based
Method: as §1

[7] = test system: NQO1; experiment: Western blot NQO1; format: cell-based; conditions: HepG2, Western blot
Method: as §2

[8] = test system: fatty acid synthase (FASN); experiment: Western blot FASN; format: cell-based; conditions: HepG2, Western blot
Method: as §2

[9] = test system: malondialdehyde (MDA); experiment: Malondialdehyde (MDA) level in HepG2; format: cell-based
Method: as §1

[10] = test system: high-density lipoprotein cholesterol (HDL-C); experiment: HDL-C level in HepG2; format: cell-based
Method: as §1

[11] = test system: total cholesterol (TCHO); experiment: Total cholesterol (TCHO) level in HepG2; format: cell-based
Method: as §1

[12] = test system: catalase (CAT); experiment: Catalase (CAT) activity in HepG2; format: cell-based
Method: as §1

[13] = test system: phosphorylated ACC1 (p-ACC1); experiment: Western blot p-ACC1; format: cell-based; conditions: HepG2, Western blot
Method: as §2

[14] = test system: HepG2 cells; experiment: Oil Red O staining (fat accumulation); format: cell-based; conditions: 200×
Method: After incubation, the supernatants were discarded, and 2 mL of Oil Red O stationary solution was added to each well for 20–30 min. The stationary solution was subsequently washed away with 60% isopropyl alcohol. A freshly prepared Oil Red O staining solution was then applied for immersion dyeing lasting 10–20 min. After removing the staining solution with water, a Mayer hematoxylin staining solution was added for counterstaining the nucleus for 1–2 min before being discarded. An Oil Red O buffer solution was applied for 1 min and then discarded. […] The emission wavelength of fluorescence detection was 600 nm.

[15] = test system: adipose triglyceride lipase (ATGL); experiment: Western blot ATGL; format: cell-based; conditions: HepG2, Western blot
Method: as §2

[16] = test system: Carnitine palmitoyl transferase 1 (CPT1); experiment: Western blot CPT1; format: cell-based; conditions: HepG2, Western blot
Method: as §2

[17] = test system: HepG2 cells; experiment: Observation of cell morphology; format: cell-based; conditions: 350 µM PANa 24 h, inverted microscope, 200×
Method: Cells grown in culture flasks underwent digestion to create a single-cell suspension that was then diluted with fresh medium before being transferred into six-well plates at a final concentration of 4 × 10^5/well (2 mL/well). Peptides at concentrations of 100 μM were introduced prior to adding PANa for a 4 h incubation. Following another 24 h culture period, cells were examined and photographed using an inverted microscope.

[18] = test system: HO-1; experiment: Western blot HO-1; format: cell-based; conditions: HepG2, Western blot
Method: as §2

[19] = test system: hypertensive mice; conditions: earlier work, ref [22]; cited from earlier work
From the text: Harpadon nehereus, a nutrient-rich marine species indigenous to the Indo-Pacific region, remains underexploited despite its significant collagen content (18–22% wet weight). Harpadon nehereus serves as an economical source that is rich in protein and trace elements. Its proteins and derived peptides offer numerous health benefits including immune enhancement, blood pressure reduction, cardiovascular protection, and inflammation mitigation. In prior research, we successfully isolated three novel peptides LALFVPR (LR-7), KLHDEEVA (KA-8), and PSRILYG (PG-7) from the enzymatic hydrol ...

[20] = test system: pancreatic lipase; experiment: Pancreatic lipase activity inhibition; format: biochemical; conditions: compared with orlistat (positive control); 4-nitrophenyl palmitate substrate, lipase 1.2 mg/mL, peptide 100 μM, Tris-HCl pH 8.0, 37 °C, absorbance 405 nm, three parallel wells
Method: A working substrate solution consisting of 4-nitrophenyl palmitate dissolved in sodium acetate solution (containing 1% Triton-X 100, 100 mL, 5 mM, pH 5.0) was prepared. Enzyme powder was dissolved in Tris-HCl buffer (pH 8.0, 37 °C). This mixture was incubated at 4 °C for 2 h before centrifugation at 5000 r/min for 5 min, yielding the supernatant used to prepare a pancreatic lipase solution of 1.2 mg/mL. Orlistat at a concentration of 1 mg/mL in Tris-HCl buffer (pH 8.0; 37 °C) was prepared alongside DMSO to reach a concentration of 350 μg/mL peptide solution. The peptide solution of 100 μM was prepared with Tris-HCl buffer (pH = 8.0, 37 °C). The absorbance was measured at 405 nm, and the inhibition rate was measured in parallel with three holes due to the methodology of Franco et al..

[21] = test system: proteins associated with lipid metabolism; experiment: Western blot, proteins associated with lipid metabolism overall; format: cell-based; conditions: 100 μM peptide 4 h, then 350 µM PANa 24 h, HepG2, Western blot
Method: as §2

[22] = test system: superoxide dismutase (SOD); experiment: Superoxide dismutase (SOD) activity in HepG2; format: cell-based; conditions: 100 μM peptide 4 h, then 350 µM PANa 24 h
Method: as §1

[23] = test system: HepG2; experiment: Lipid levels in HepG2 (TG, TCHO, LDL-C, HDL-C) overall; format: cell-based; conditions: 100 μM peptide 4 h, then 350 µM PANa 24 h
Method: as §1

[24] = test system: HepG2 cells; experiment: Cell viability of PANa-induced HepG2 (CCK-8); format: cell-based; conditions: 100 μM peptide 4 h, then 350 µM PANa 24 h, **** p < 0.0001 vs PANa group
Method: A total of 2 × 10^4 cells/well were inoculated in 96-well plates for culture at 37 °C and 5% CO2. Following this period, the cells received treatment with 200 μL medium containing 100 μM LR-7, KA-8, or PG-7 for 4 h before adding 350 μM PANa to each well. After incubation for an additional 24 h, the cell proliferation rates were assessed using the CCK-8 assay protocols.

[25] = test system: HepG2 cells; experiment: CCK-8 proliferation of HepG2 with peptide alone; format: cell-based; conditions: concentrations below 200 µM, 24 h, CCK-8, n = 3
Method: HepG2 cells were cultured in DMEM supplemented with penicillin at a concentration of 100 U/mL, streptomycin at 100 μg/mL, and fetal bovine serum at a volume ratio of 10% under conditions of 37 °C and 5% CO2. A total of 2 ×10^4 cells per well were seeded into a 96-well plate for overnight culture. The upper layer of medium was carefully aspirated, and 200 μL of different concentrations of oligopeptide solution (50 μM, 100 μM, 200 μM) prepared with cell complete medium was added to each well. Twenty-four hours later, the proliferation rate of the cells was measured according to the instructions of the CCK-8 kit, and the appropriate concentration of oligopeptide was screened out.

[26] = 350 µM PANa 24 h, HepG2, p < 0.0001
[27] = 350 µM PANa 24 h, HepG2, p < 0.001
[28] = 100 μM peptide 4 h, then 350 µM PANa 24 h, HepG2
[29] = 100 μM peptide 4 h, then 350 µM PANa 24 h
[30] = 100 μM peptide 4 h, then 350 µM PANa 24 h, HepG2, p < 0.0001
[31] = 100 μM peptide 4 h, then 350 µM PANa 24 h, vs PANa group, p < 0.0001
[32] = 100 μM peptide 4 h, then 350 µM PANa 24 h, vs PANa group

With `CCCCCCCCCCCCCCCC(=O)[O-].[Na+]` [PANa, Sodium palmitate] the “increase in TG level vs Con group” value [1, 26] was 124.1%, the “Nrf2 protein expression, PANa vs Con group” value ([2]; 350 µM PANa 24 h) was “significant reduction” and the cell viability [3] was 33.3%. For the same compound, the “decrease in GSH-Px activity vs Con group” value [4, 27] was “more than 20%”, the “phosphorylation of AMPKα, PANa group” value [5] was “attenuate the phosphorylation of AMPKα” and the “increase in LDL-C level vs Con group” value [6, 26] was 58.3%. The “NQO1 protein expression, PANa vs Con group” value ([7]; 350 µM PANa 24 h) was “significant reduction”, the “FASN expression, PANa vs Con group” value ([8]; 350 µM PANa 24 h) was “notable increase in FASN expression” and the “increase in MDA level vs Con group” value [9, 26] was 105%. For the same compound, the “decrease in HDL-C level vs Con group” value [10, 27] was 51.7%, the “increase in TCHO level vs Con group” value [11, 26] was 48.4% and the “decrease in CAT activity vs Con group” value [12, 27] was “more than 20%”. For the same compound, the “p-ACC1 level, PANa vs Con group” value ([13]; 350 µM PANa 24 h, p < 0.01) was “significantly reduced”, the “fat droplet formation and accumulation, PANa vs Con group” value ([14]; 350 µM PANa 24 h) was “evident rise in fat droplet formation and accumulation” and the “ATGL expression, PANa vs Con group” value ([15]; 350 µM PANa 24 h, p < 0.05) was “markedly diminished”. The “CPT1 expression, PANa vs Con group” value ([16]; 350 µM PANa 24 h, p < 0.05) was “markedly diminished”, the “cell morphology, PANa group” value [17] was “appeared loose, with a marked decrease in cell count and showed signs of apoptosis” and the “HO-1 protein expression, PANa vs Con group” value ([18]; 350 µM PANa 24 h) was “significant reduction”.
For “LALFVPR [LR-7, peptide from Harpadon nehereus bone collagen enzymatic hydrolysates]”, the “protection against cardiovascular injuries in hypertensive mice” value [19] is listed as “protective qualities against cardiovascular injuries in hypertensive mice”, the “inhibition of pancreatic lipase activity” value [20] is listed as “superior inhibitory effects compared with orlistat” and the “TG, effect on PANa-induced increase” value [1, 28] is listed as “notably reversed the PANa-induced increases”. For the same compound, the Nrf2 protein level [2, 29] was “significant increases in the levels”, the “abnormal expression of proteins associated with lipid metabolism by PANa (FASN, ATGL, CPT1, p-AMPKα)” value [21] was “significantly reversed” and the “GSH-Px activity, reversal of PANa-induced reduction” value [4, 28] was “effectively reversed the reduction”. The “increase in GSH-Px activity vs PANa group” value [4, 30] was “over 100%”, the “LDL-C, effect on PANa-induced increase” value [6, 28] was “notably reversed the PANa-induced increases” and the NQO1 protein level [7, 29] was “significant increases in the levels”. The “increase in NQO1 level” value [7, 31] was 120%, the “FASN expression vs PANa group” value [8, 29] was “FASN expression decreased” and the “reduction in FASN level” value [8, 32] was 59.6%. The MDA level [9, 28] was “decreased to values similar to those observed in the Con group; also recorded: significantly decreased the MDA levels”, the “SOD activity, reversal of PANa-induced reduction” value [22] was “effectively reversed the reduction” and the “HDL-C, effect on PANa-induced decrease” value [10, 28] was “notably reversed”. For the same compound, the “lipid-lowering impact, ranking among the three peptides” value [23] was “the most effective lipid-lowering impact”, the “TCHO, effect on PANa-induced increase” value [11, 28] was “notably reversed the PANa-induced increases” and the “CAT activity, reversal of PANa-induced reduction” value [12, 28] was “effectively reversed the reduction”. The “increase in CAT activity vs PANa group” value [12, 30] was “over 100%”, the “p-ACC1 level vs PANa group” value [13, 29] was “p-ACC1 levels increased significantly” and the “enhancement of p-ACC1” value [13, 32] was 293.7%. The “fat accumulation relative to PANa group” value [14, 29] was “most significant reduction in fat accumulation”, the “enhancement of ATGL level” value [15, 31] was 148.1% and the “enhancement of CPT1 level” value [16, 31] was 134.7%. The “cell viability of PANa-exposed HepG2” value [24] was “notably enhanced the cell viability”, the HO-1 protein level [18, 29] was “significant increases in the levels” and the “increase in HO-1 level” value [18, 31] was 131.7%. For the same compound, the “effect on apoptosis of HepG2 cells” value [25] was “no effect on the apoptosis of HepG2 cells”.
